This is an account of results in patent US20210187013A1, “Methods of Treating and Preventing Cancer by Disrupting the Binding of Copper in the Map Kinase Pathway” (DUKE UNIVERSITY, priority 2012, published 2021).

Assay [1] concerns the target T1, recombinant GST-hErk2 (Homo sapiens, UniProt P28482).
T1 construct: made in house; host or cells: E. coli BL21(DE3)
Description: Erk2 in vitro kinase assay (phosphorylation of MBP). The format is biochemical. Conditions: increasing amounts of CuSO4; wild-type Erk2. The procedure:
Human Erk2 and human Mek1 were obtained from Addgene and cloned into pGEX4T3 and pGEX6P1 from GE Life Sciences, respectively. Recombinant GST-human Erk2 (hErk2) and GST-human Mek1 (hMek1) were purified from BL21(DE3) bacteria as previously described. (see Heise, C. J. (2006) Methods 40:209-212; Levin-Salomon, V. et al. (2008) J. Biol. Chem. 283:34500-34510). Specifically, 500 mL of LB was inoculated with BL21(DE3) bacteria transformed with pGEX4T3-hErk2 or pGEX6P1-hMek1 and allowed to grow to an optical density of 0.6 at 600 nm (OD600). GST-hErk2 was induced by IPTG (0.4 mM) at 37° C. for 4 hours, while GST-hMek1 was induced by IPTG (1 mM) for 14 hour at 25° C. before collection by ultracentrifugation. […] and GST-hMek1 pellets were resuspended in 50 mL of 1×PBS-1% Triton X-100 plus a protease inhibitor tablet and sonicated for bacterial lysis. […] The concentration was determined using the Bio-Rad DC protein assay (Bio-Rad, Hercules, United States).
Modified version of Mek1 and Erk2 in vitro kinase assay were performed as described previously. […] Reactions were quenched with 5× Laemmli buffer, and a third of the reaction mixture was analyzed by SDS-PAGE via subsequent Western blotting with phosphospecific antibodies. […] Reactions were quenched with 5× Laemmli buffer, and a third of the reaction mixture was analyzed by SDS-PAGE via Western blotting with phosphospecific antibodies.

Assay [2] has as its target T2, recombinant Mek1 (Rattus norvegicus, UniProt Q01986).
T2 construct: GST (N, cleaved yes); made in house; host or cells: E. coli BL21-CodonPlus (DE3)-RIPL
Description: Equilibrium dialysis copper binding stoichiometry of recombinant Mek1. The procedure: To investigate the nature of copper binding to Mek1, purified recombinant Mek1 was used for in vitro copper binding stoichiometry and binding affinity experiments. In vitro copper-binding experiments were carried out using the rat Mek1 coding sequence, which was PCR amplified using the pCMV-HAMek1 construct and cloned into the pGex6P-1 vector (GE Healthcare Life Sciences, Waukesha, United States). The resulting plasmid, pGex69-1Mek1, was transformed into BL21-CodonPlus (DE3)-RIPL cells from Stratagene. Recombinant, glutathione S-transferase (GST)-tagged Mek1 was purified by affinity chromatography using GSH agarose beads, followed by on-column Pre Scission protease cleavage of the GST tag. Further purification was achieved using MonoQ anion-exchange chromatography that served to remove the majority of the contaminating proteins, including cleaved GST tags that were not retained on the GSH column. […] Protein concentrations were determined by quantitative amino acid analysis with a Beckman 6300 analyzer (Beckman Coulter, Brea, United States) after hydrolysis in 5.7 N HCl at 110° C. in vacuo. Equilibrium dialysis experiments were conducted as described in Horng, Y. C. et al. (2006) J. Biol. Chem. 280:34113-34122. Recombinant Mek1 (2.5 to 10 μM in 20 mM Tris [pH 7.2]) was dialyzed, using a dialysis tube with 10-kDa molecular mass cutoff, against CuCl2 concentrations ranging from 0.25 to 15 μM in 20 mM Tris (pH 7.2)-100 mM NaCl overnight at 4° C. with slow stirring. Copper levels associated with Mek1 and the dialysate were quantified by inductively coupled plasma mass spectroscopy after digestion with 50% HNO3 at 65° C. In specific experiments, Cu^2+ was introduced as a Cu^2+-histidine complex (His complex) to preclude Cu^2+ hydrolysis and precipitation.
However, the inclusion of 0.1 mM EDTA reduced the Cu content to ˜1.5 molar equivalents. Dialysis of Mek1 against 2 μM Cu^2+-4 μM His complex, followed by a subsequent dialysis step in 0.1 mM EDTA, reduced the copper content to approximately 2 molar equivalents. Inclusion of […] when only Cu^2+ was present. […] In a separate series of equilibrium dialysis experiments in which the Cu^2+ content was varied from […] to 0.15 μM, the maximal copper content associated with Mek1 plateaued near ˜2.5 molar equivalent (FIG. 7B). […] Under these same conditions, Cu^2+ binding is observed with albumin, a known Cu^2+-binding protein, but not lysozyme or thyroglobulin.
On the technique in general: In equilibrium dialysis only unbound substance equilibrates across the membrane.

T2 sequence (Q01986 whole entry): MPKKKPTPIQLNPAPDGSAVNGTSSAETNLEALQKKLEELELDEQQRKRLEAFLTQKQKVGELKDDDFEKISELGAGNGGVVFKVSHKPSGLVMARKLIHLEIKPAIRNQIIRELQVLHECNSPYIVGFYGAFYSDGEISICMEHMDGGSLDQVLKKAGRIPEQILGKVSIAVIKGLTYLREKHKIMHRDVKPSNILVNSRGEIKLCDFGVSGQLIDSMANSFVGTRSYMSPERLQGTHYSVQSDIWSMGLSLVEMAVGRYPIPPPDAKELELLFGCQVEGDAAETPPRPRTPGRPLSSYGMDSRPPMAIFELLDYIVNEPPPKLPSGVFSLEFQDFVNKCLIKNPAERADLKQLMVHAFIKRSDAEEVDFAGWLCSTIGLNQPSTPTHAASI
T1 sequence (P28482 whole entry): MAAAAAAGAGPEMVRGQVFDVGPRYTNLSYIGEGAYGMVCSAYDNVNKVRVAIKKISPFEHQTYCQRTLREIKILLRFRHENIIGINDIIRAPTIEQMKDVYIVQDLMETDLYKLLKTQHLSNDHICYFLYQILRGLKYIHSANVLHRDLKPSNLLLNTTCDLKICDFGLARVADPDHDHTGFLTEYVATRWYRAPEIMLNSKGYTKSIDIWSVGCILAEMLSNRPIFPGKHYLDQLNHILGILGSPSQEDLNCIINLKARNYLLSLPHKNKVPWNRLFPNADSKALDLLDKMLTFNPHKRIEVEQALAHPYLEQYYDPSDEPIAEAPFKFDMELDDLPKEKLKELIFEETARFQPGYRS

As to `[Cl][Cu][Cl]` [Cu^2+, CuCl2], the “Erk2 phosphorylation of MBP” value in assay [1] was “no effect”. Moreover, the “bound copper content of Mek1” value is on record as “approximately 2 molar equivalents” in assay [2] (dialysis against 2 μM Cu2+-4 μM His complex, then dialysis in 0.1 mM EDTA); around 2.5 molar equivalents in assay [2] (dialysis against 2 μM Cu2+, as-isolated ratio ~0.5); around 1.5 molar equivalents in assay [2] (dialysis with inclusion of 0.1 mM EDTA); 2.6 in assay [2] (only Cu2+ present (comparison with Zn(II) and Fe(II) inclusion)). Besides, the “maximal copper content associated with Mek1 (plateau)” value in assay [2] (separate dialysis series, Cu2+ content varied from 0.11 to 0.15 μM) was around 2.5 molar equivalent.
